Measurements reported in patent US20150017667A1, “MEANS AND METHODS FOR ASSESSING LIVER DISORDERS” (BASF SE, priority 2012, published 2015).
Where two headings read alike, the source gives them in different places. Marks after values point to notes of the source that are not given here.

Experiments:
[1] = tested on: male rats; experiment: 28-day repeated dose oral toxicity study (OECD 407) with GC-MS/LC-MS plasma metabolite profiling, male rats; format: in vivo, rat
Excerpt: Drinking water was also offered ad libitum.
The samples were centrifuged for generation of plasma.

[2] = tested on: female rats; conditions: rat, in vivo
Experimental: (§1) A group of each 5 male and female rats was dosed once daily with the indicated compounds (see Table 5, below for compounds, applied doses and administeration details) over 28 days.
(§2) Each dose group in the studies consisted of five rats per sex. Additional groups of each 5 male and female animals served as controls. Before starting the treatment period, animals, which were 62-64 days old when supplied, were acclimatized to the housing and environmental conditions for 7 days. All animals of the animal population were kept under the same constant temperature (20-24±3° C.) and the same constant humidity (30-70%). The animals of the animal population were fed ad libitum. The food to be used was essentially free of chemical or microbial contaminants. Drinking water was also offered ad libitum. Accordingly, the water was free of chemical and microbial contaminants as laid down in the European Drinking Water Directive 98/83/EG. The illumination period was 12 hours light followed by 12 hours darkness (12 hours light, from 6:00 to 18:00, and 12 hours darkness, from 18:00 to 6:00).
(§3) In the morning of day 7, 14, and 28, blood was taken from the retroorbital venous plexus from fasted anaesthetized animals. From each animal, 1 ml of blood was collected with EDTA as anticoagulant. The samples were centrifuged for generation of plasma. All plasma samples were covered with a N2 atmosphere and then stored at −80° C. until analysis.
(§4) For mass spectrometry-based metabolite profiling analyses plasma samples were extracted and a polar and a non-polar (lipid) fraction was obtained. For GC-MS analysis, the non-polar fraction was treated with methanol under acidic conditions to yield the fatty acid methyl esters. Both fractions were further derivatised with O-methyl-hydroxyamine hydrochloride and pyridine to convert Oxogroups to O-methyloximes and subsequently with a silylating agent before analysis. In LC-MS analysis, both fractions were reconstituted in appropriate solvent mixtures. HPLC was performed by gradient elution on reversed phase separation columns.
(§5) Following comprehensive analytical validation steps, the data for each analyte were normalized against data from pool samples. These samples were run in parallel through the whole process to account for process variability. The significance of treatment group values specific for sex, treatment duration and metabolite was determined by comparing means of the treated groups to the means of the respective untreated control groups using WELCH-test and quantified with treatment ratios versus control and p-values.

[3] = tested on: female rats; experiment: 28-day repeated dose oral toxicity study (OECD 407) with GC-MS/LC-MS plasma metabolite profiling, female rats
Experimental: as §1, §2, §3, §4, §5

Threonine, ratio versus control [2]: 1.05*
Compound: CC/C(=C(\c1ccccc1)c1ccc(OCCN(C)C)cc1)c1ccccc1 [Tamoxifen]
16-Methylheptadecanoic acid change in plasma ([1]; m7): 0.58*
17-Methyloctadecanoic acid change in plasma ([1]; m7): 0.61*
Campesterol change in plasma ([1]; m7): 0.59*
Lysophosphatidylcholine (C18:1) change in plasma ([1]; m7): 0.78*
Myristic acid (C14:0) change in plasma ([1]; m7): 0.65*
PC No 04 (putative) change in plasma ([1]; m7): 0.44*
Palmitoleic acid (C16:cis[9]1) change in plasma ([1]; m7): 0.57*
Phosphatidylcholine (C16:0,C20:4) change in plasma ([1]; m7): 0.87*
Phosphatidylcholine (C16:1,C18:2) change in plasma ([1]; m7): 0.76*
Phosphatidylcholine (C18:1,C18:2) change in plasma ([1]; m7): 0.79*
Phosphatidylcholine No 02 change in plasma ([1]; m7): 0.53*
Sphingomyelin (d18:1,C16:0) change in plasma ([1]; m7): 0.66*
Tyrosine change in plasma ([1]; m7): 0.77*
Unknown lipid (28000473) change in plasma ([1]; m7): 0.31*
Unknown lipid (68000034) change in plasma ([1]; m7): 0.74*
Uracil change in plasma ([1]; m7): 0.86*
beta-Sitosterol change in plasma ([1]; m7): 0.75*
Lysophosphatidylcholine (C20:4) change in plasma ([1]; m7, first of two rows with this name (r24)): 0.90*
Lysophosphatidylcholine (C20:4) change in plasma ([1]; m7, second of two rows with this name (r25)): 0.77*
16-Methylheptadecanoic acid change in plasma ([1]; m14): 0.60*
17-Methyloctadecanoic acid change in plasma ([1]; m14): 0.64*
Campesterol change in plasma ([1]; m14): 0.74*
Lysophosphatidylcholine (C18:1) change in plasma ([1]; m14): 0.84*
Myristic acid (C14:0) change in plasma ([1]; m14): 0.60*
PC No 04 (putative) change in plasma ([1]; m14): 0.56*
Palmitoleic acid (C16:cis[9]1) change in plasma ([1]; m14): 0.43*
Phosphatidylcholine (C16:0,C20:4) change in plasma ([1]; m14): 0.96*
Phosphatidylcholine (C16:1,C18:2) change in plasma ([1]; m14): 0.69*
Phosphatidylcholine (C18:1,C18:2) change in plasma ([1]; m14): 0.83*
Phosphatidylcholine No 02 change in plasma ([1]; m14): 0.60*
Sphingomyelin (d18:1,C16:0) change in plasma ([1]; m14): 0.73*
Tyrosine change in plasma ([1]; m14): 0.85*
Unknown lipid (28000473) change in plasma ([1]; m14): 0.46*
Unknown lipid (68000034) change in plasma ([1]; m14): 0.59*
Uracil change in plasma ([1]; m14): 0.75*
beta-Sitosterol change in plasma ([1]; m14): 0.83*
Lysophosphatidylcholine (C20:4) change in plasma ([1]; m14, first of two rows with this name (r24)): 0.89*
Lysophosphatidylcholine (C20:4) change in plasma ([1]; m14, second of two rows with this name (r25)): 0.79*
16-Methylheptadecanoic acid change in plasma ([1]; m28): 0.48*
17-Methyloctadecanoic acid change in plasma ([1]; m28): 0.48*
Campesterol change in plasma ([1]; m28): 0.55*
Lysophosphatidylcholine (C18:1) change in plasma ([1]; m28): 0.81*
Myristic acid (C14:0) change in plasma ([1]; m28): 0.61*
PC No 04 (putative) change in plasma ([1]; m28): 0.54*
Palmitoleic acid (C16:cis[9]1) change in plasma ([1]; m28): 0.32*
Phosphatidylcholine (C16:0,C20:4) change in plasma ([1]; m28): 0.97*
Phosphatidylcholine (C16:1,C18:2) change in plasma ([1]; m28): 0.74*
Phosphatidylcholine (C18:1,C18:2) change in plasma ([1]; m28): 0.99
Phosphatidylcholine No 02 change in plasma ([1]; m28): 0.62*
Sphingomyelin (d18:1,C16:0) change in plasma ([1]; m28): 0.71*
Tyrosine change in plasma ([1]; m28): 0.86
Unknown lipid (28000473) change in plasma ([1]; m28): 0.37*
Unknown lipid (68000034) change in plasma ([1]; m28): 0.45*
Uracil change in plasma ([1]; m28): 0.79*
beta-Sitosterol change in plasma ([1]; m28): 0.73*
Lysophosphatidylcholine (C20:4) change in plasma ([1]; m28, first of two rows with this name (r24)): 0.88*
Lysophosphatidylcholine (C20:4) change in plasma ([1]; m28, second of two rows with this name (r25)): 0.70*
3-Methoxytyrosine, ratio versus control ([1]; plasma, day 7): 1.17*
Serine, ratio versus control ([1]; plasma, day 7): 1.17*
Xylitol, ratio versus control ([1]; plasma, day 7): 1.57*
Threonine, ratio versus control ([1]; plasma, day 7 (Table 7c)): 0.96
3-Methoxytyrosine, ratio versus control ([1]; plasma, day 14): 1.31*
Xylitol, ratio versus control ([1]; plasma, day 14): 2.05*
Threonine, ratio versus control ([1]; plasma, day 14 (Table 7c)): 1.22*
3-Methoxytyrosine, ratio versus control ([1]; plasma, day 28): 1.39*
Xylitol, ratio versus control ([1]; plasma, day 28): 1.75*
Threonine, ratio versus control ([1]; plasma, day 28 (Table 7c)): 1.10*
3-Methoxytyrosine, ratio versus control ([3]; day 7): 1.26*
16-Methylheptadecanoic acid, ratio versus control ([3]; day 7): 0.73*
17-Methyloctadecanoic acid, ratio versus control ([3]; day 7): 0.80*
Ketoleucine, ratio versus control ([3]; day 7): 0.92
Normetanephrine, ratio versus control ([3]; day 7): 0.84
Palmitoleic acid (C16:cis[9]1), ratio versus control ([3]; day 7): 0.91
Phosphatidylcholine (C18:0,C20:3), ratio versus control ([3]; day 7): 0.81*
TAG (C18:1,C18:2,C18:3), ratio versus control ([3]; day 7): 2.78*
TAG (C42:9) (DAG-Fragment) (putative), ratio versus control ([3]; day 7): 0.56*
Threonine, ratio versus control ([3]; day 7): 1.17*
Uracil, ratio versus control ([3]; day 7): 0.86*
Xylitol, ratio versus control ([3]; day 7): 1.29*
TAG (C18:2,C18:2), ratio versus control ([3]; day 7 (Table 7a)): 3.21*
Lysophosphatidylcholine (C20:4), ratio versus control ([3]; day 7 (first line of this name, r15)): 0.92*
Lysophosphatidylcholine (C20:4), ratio versus control ([3]; day 7 (second line of this name, r16)): 0.88*
3-Methoxytyrosine, ratio versus control ([3]; day 14): 1.61*
16-Methylheptadecanoic acid, ratio versus control ([3]; day 14): 0.97
17-Methyloctadecanoic acid, ratio versus control ([3]; day 14): 0.92
Ketoleucine, ratio versus control ([3]; day 14): 0.71*
Normetanephrine, ratio versus control ([3]; day 14): 1.15
Palmitoleic acid (C16:cis[9]1), ratio versus control ([3]; day 14): 0.69*
Phosphatidylcholine (C18:0,C20:3), ratio versus control ([3]; day 14): 0.89*
TAG (C18:1,C18:2,C18:3), ratio versus control ([3]; day 14): 2.96*
TAG (C42:9) (DAG-Fragment) (putative), ratio versus control ([3]; day 14): 0.65*
Uracil, ratio versus control ([3]; day 14): 0.86*
Xylitol, ratio versus control ([3]; day 14): 1.63*
TAG (C18:2,C18:2), ratio versus control ([3]; day 14 (Table 7a)): 2.84*
Lysophosphatidylcholine (C20:4), ratio versus control ([3]; day 14 (first line of this name, r15)): 0.96*
Lysophosphatidylcholine (C20:4), ratio versus control ([3]; day 14 (second line of this name, r16)): 0.84*
3-Methoxytyrosine, ratio versus control ([3]; day 28): 1.38*
16-Methylheptadecanoic acid, ratio versus control ([3]; day 28): 0.78*
17-Methyloctadecanoic acid, ratio versus control ([3]; day 28): 0.89*
Ketoleucine, ratio versus control ([3]; day 28): 0.77*
Normetanephrine, ratio versus control ([3]; day 28): 0.89
Palmitoleic acid (C16:cis[9]1), ratio versus control ([3]; day 28): 0.60*
Phosphatidylcholine (C18:0,C20:3), ratio versus control ([3]; day 28): 0.88*
TAG (C18:1,C18:2,C18:3), ratio versus control ([3]; day 28): 2.18*
TAG (C42:9) (DAG-Fragment) (putative), ratio versus control ([3]; day 28): 0.81*
Threonine, ratio versus control ([3]; day 28): 0.98
Uracil, ratio versus control ([3]; day 28): 0.64*
Xylitol, ratio versus control ([3]; day 28): 1.71*
TAG (C18:2,C18:2), ratio versus control ([3]; day 28 (Table 7a)): 2.20*
Lysophosphatidylcholine (C20:4), ratio versus control ([3]; day 28 (first line of this name, r15)): 0.91*
Lysophosphatidylcholine (C20:4), ratio versus control ([3]; day 28 (second line of this name, r16)): 0.81*
